{"source": "patent US12162934B2", "about": "“Gremlin-1 antagonist for the prevention and treatment of cancer” (UCB BIOPHARMA SRL, priority 2018, dated 2024)", "key": {"rhGremlin-1": {"target": "T1, rhGremlin-1 (Homo sapiens, UniProt O60565)", "T1 sequence (O60565 25-184)": "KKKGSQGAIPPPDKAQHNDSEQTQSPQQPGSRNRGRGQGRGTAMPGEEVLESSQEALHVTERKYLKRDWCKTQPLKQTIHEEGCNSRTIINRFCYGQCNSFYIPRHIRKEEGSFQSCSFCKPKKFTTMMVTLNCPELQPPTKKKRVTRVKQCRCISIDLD", "assay": "SMAD phosphorylation assay: restoration of p-SMAD signalling, lung fibroblasts from idiopathic pulmonary fibrosis patients", "assay_type": "cell-based", "method": "Antibodies were screened using the Hek-Id1 reporter gene assay described in Example 3 and by measuring SMAD phosphorylation. SMAD1, 5 and 8 are phosphorylated upon BMP signalling. Inhibitors of Gremlin-1 therefore increase SMAD phosphorylation.\nSMAD phosphorylation assays were conducted on A549 cells or on human lung fibroblasts. Phosphorylation levels were determined using MSD.\nResults are shown as a percentage of SMAD phosphorylation by BMP alone (control BMP). Experiments were performed using lung fibroblasts from idiopathic pulmonary fibrosis patients. rhGremlin-1 and the anti-Gremlin-1 antibodies were preincubated for 45 minutes at room temperature. rhGremlin-1 and the anti-Gremlin-1 antibodies were then added with BMP to the cells for 30 minutes."}, "[1]": {"target": "T2, BMP-2-Gremlin-1 complexes (Homo sapiens, UniProt O60565)", "T2 sequence (O60565 25-184)": "T1 sequence (O60565 25-184)", "assay": "SMAD phosphorylation assay: displacement of BMP-2 from Gremlin 1-BMP complexes", "assay_type": "cell-based", "settings": "for Displacement of BMP-2 from Gremlin 1-BMP complexes (SMAD phosphorylation): BMP 2 50 ng/ml", "method": "Experiments were again performed using lung fibroblasts from idiopathic pulmonary fibrosis patients. rhBMP-2 or rhBMP 4/7 were preincubated with rhGremlin-1 for 1 hour at room temperature. The BMP-2- or BMP4/7-Gremlin-1 complexes were incubated with different concentrations of the anti-Gremlin-1 antibodies overnight at 4° C. Antibody concentrations represent the final concentration on the plate."}, "Vil1-Grem1;Apc^Min mice": {"system": "Vil1-Grem1;Apc^Min mice", "assay": "Vil1-Grem1;Apc^Min mouse polyposis model (survival)", "assay_type": "in vivo"}, "5TGM1.Bmx1 MM PCs [2]": {"system": "5TGM1.Bmx1 MM PCs", "assay": "5TGM1/KaLwRij mouse model of multiple myeloma, antibody after tumour cell inoculation", "assay_type": "in vivo", "settings": "for Reduction in MM tumour burden (BLI): 30 mg/kg s.c. every 3 days from 3 days post-inoculation, 4 weeks", "method": "Targeting Grem1 in an immunocompetent murine model of systemic MM: C57BL/KaLwRij mice (6-8-week-old) were inoculated with 5×10^5 5TGM1.Bmx1 cells via tail vein injection. Three days post-inoculation with 5TGM1.Bmx1 MM PCs, KaLwRij mice were administered with 30 mg/kg Grem1-neutralising antibody Ab7326 or IgG control Ab101.4 (UCB-Pharma, UK) by subcutaneous (s.c.) injection. Mice were treated every 3 days for the duration of the 4-week model. Tumour burden was monitored weekly by BLI as previously described. At the end of the experiment, blood was collected by tail bleed, centrifuged at 2100 g for 10 min and serum collected. Serum paraprotein levels were analysed using the Hydragel 30 β1β2 kit (Sebia Electrophoresis, Georgia, USA) following the instructions of the manufacturer. The band corresponding to paraprotein was quantitated relative to serum albumin levels. (SAAMRI Animal Ethics SAM165)"}, "5TGM1.Bmx1 MM PCs [3]": {"system": "5TGM1.Bmx1 MM PCs", "assay": "5TGM1/KaLwRij mouse model of multiple myeloma, antibody prior to tumour cell inoculation", "assay_type": "in vivo", "method": "Targeting Grem1 prior to tumour cell inoculation in an immunocompetent murine model of systemic MM: C57BL/KaLwRij mice (6-8-week-old) were administered two doses of 30 mg/kg Grem1-neutralising antibody Ab7326 or IgG control Ab101.4 (UCB-Pharma, UK) by subcutaneous (s.c.) injection three days and one day prior to tumour inoculation. At Day 0, mice were inoculated with 5×10^5 5TGM1.Bmx1 cells via tail vein injection. Mice continued to receive either 30 mg/kg Grem1-neutralising antibody Ab7326 or IgG control Ab101.4 (UCB-Pharma, UK) by s.c. injection every 3 days for the duration of the 4-week model. Tumour burden was monitored weekly by BLI as previously described. At the end of the experiment, blood was collected by tail bleed, centrifuged at 2100 g for 10 min and serum collected. Serum paraprotein levels were analysed using the Hydragel 30 β1β2 kit (Sebia Electrophoresis, Georgia, USA) according to the manufacturer's instructions. The band corresponding to paraprotein was quantitated relative to serum albumin levels. (SAHMRI Animal Ethics SAM165)"}, "[4]": {"system": "PyMT-B01 mouse breast cancer cells", "assay": "PyMT-B01 breast cancer model in C57BL6 mice (BLI)", "assay_type": "in vivo", "method": "PyMT-B01: 5-week old C57BL6 immunocompetent mice were subcutaneously (s.c) administered two 30 mg/kg doses of anti-Grem1 antibody Ab7326 or IgG control, Ab101.4, the week prior to tumour cell inoculation. 1×10^5 luciferase expressing PyMT-B01 mouse breast cancer cells were injected systemically via the caudal artery (CA).\nTreatment continued twice weekly for the duration of the study. At weekly intervals, mice were administered 150 mg/kg luciferin intraperitoneally (i.p) and imaged using the Xenogen IVIS Bioluminescence Imaging System, and tumour burden was quantitated using Living Image software. The study ended on day 13 and day 22 post-tumour cell injection for the PyMT-B01 and MDA-MB-231 models respectively, according to animal ethics requirements. Organs were dissected upon culling animals and BLI imaged ex vivo for analysis of tumour metastasis."}, "Vil1-Grem1 mice": {"system": "Vil1-Grem1 mice", "assay": "Vil1-Grem1 mouse polyposis model (phenotype, survival)", "settings": "for median survival: vehicle 242 days"}}, "data": [{"substance": "Ab7326: allosteric inhibitory anti-Gremlin-1 antibody from a naïve human library; CDRs SEQ ID NOS 4 to 9; mouse IgG1 in mouse experiments", "values": [{"measurement": "Restoration of p-SMAD signalling, percentage of SMAD phosphorylation by BMP alone", "setting": "rhGremlin-1; BMP 2 50 ng/ml", "result": 107.2, "unit": "%"}, {"measurement": "Restoration of p-SMAD signalling, percentage of SMAD phosphorylation by BMP alone", "setting": "rhGremlin-1; BMP 4 25 ng/ml", "result": 110.0, "unit": "%"}, {"measurement": "Restoration of p-SMAD signalling, percentage of SMAD phosphorylation by BMP alone", "setting": "rhGremlin-1; BMP4/7 50 ng/ml", "result": 127.0, "unit": "%"}, {"measurement": "Restoration of p-SMAD signalling, percentage of SMAD phosphorylation by BMP alone", "setting": "rhGremlin-1; BMP 7 200 ng/ml", "result": 108.0, "unit": "%"}, {"measurement": "Restoration of p-SMAD signalling, percentage of SMAD phosphorylation by BMP alone", "setting": "rhGremlin-1; BMP-2/7 50 ng/ml", "result": 128.5, "unit": "%"}, {"measurement": "Displacement of BMP-2 from Gremlin 1-BMP complexes (SMAD phosphorylation)", "setting": "[1]; antibody 0.63 μg/ml", "result": 97.0, "unit": "%"}, {"measurement": "Displacement of BMP-2 from Gremlin 1-BMP complexes (SMAD phosphorylation)", "setting": "[1]; antibody 1.27 μg/ml", "result": 102.8, "unit": "%"}, {"measurement": "Displacement of BMP-2 from Gremlin 1-BMP complexes (SMAD phosphorylation)", "setting": "[1]; antibody 2.55 μg/ml", "result": 103.2, "unit": "%"}, {"measurement": "Displacement of BMP-2 from Gremlin 1-BMP complexes (SMAD phosphorylation)", "setting": "[1]; antibody 5.1 μg/ml", "result": 100.3, "unit": "%"}, {"measurement": "Displacement of BMP-2 from Gremlin 1-BMP complexes (SMAD phosphorylation)", "setting": "[1]; antibody 10.2 μg/ml", "result": 103.8, "unit": "%"}, {"measurement": "Displacement of BMP-2 from Gremlin 1-BMP complexes (SMAD phosphorylation)", "setting": "[1]; antibody 20.3 μg/ml", "result": 99.4, "unit": "%"}, {"measurement": "Displacement of BMP-2 from Gremlin 1-BMP complexes (SMAD phosphorylation)", "setting": "[1]; antibody 40.6 μg/ml", "result": 101.5, "unit": "%"}, {"measurement": "Displacement of BMP-2 from Gremlin 1-BMP complexes (SMAD phosphorylation)", "setting": "[1]; antibody 81.3 μg/ml", "result": 103.7, "unit": "%"}, {"measurement": "Displacement of already complexed BMP from Gremlin 1-BMP complexes", "setting": "[1]; BMP-2 or BMP4/7, at much lower concentrations than comparison antibody 2484", "result": "can displace already complexed BMP-2 or BMP4/7"}, {"measurement": "median survival", "setting": "Vil1-Grem1;Apc^Min mice; 15 mg/kg weekly, from 21 days of age, vehicle 45 days", "result": 76.5, "unit": "days"}, {"measurement": "mean lifespan", "setting": "Vil1-Grem1;Apc^Min mice; 30 mg/kg twice weekly from 3 weeks of age, untreated VG-min 46 days", "result": 108, "unit": "days"}, {"measurement": "median survival", "setting": "Vil1-Grem1;Apc^Min mice; 30 mg/kg weekly, from 21 days of age, ongoing experiment", "result": 108, "unit": "days"}, {"measurement": "median survival", "setting": "Vil1-Grem1;Apc^Min mice; 60 mg/kg weekly, from 21 days of age, ongoing experiment", "result": 111, "unit": "days"}, {"measurement": "median survival", "setting": "Vil1-Grem1;Apc^Min mice; late stage: treatment at or from the age of 35 days, antibody 30 mg/kg weekly, 5FU two i.p. daily doses of 40 mg/kg, no treatment 45 days", "result": 49.5, "unit": "days"}, {"measurement": "Reduction in MM tumour burden (BLI)", "setting": "5TGM1.Bmx1 MM PCs [2]; vs IgG control", "result": "~50", "unit": "%"}, {"measurement": "Reduction in MM tumour burden (BLI)", "setting": "5TGM1.Bmx1 MM PCs [2]; vs IgG control, listed as Grem1-neutralising antibody", "result": "approximately 50%"}, {"measurement": "Tumour burden in the hindlimb bones (BLI)", "setting": "5TGM1.Bmx1 MM PCs [2]; antibody after tumour cell inoculation, vs IgG control", "result": "significant reduction"}, {"measurement": "Splenic tumour burden", "setting": "5TGM1.Bmx1 MM PCs [2]; post-tumour cell inoculation group", "result": "downwards trend"}, {"measurement": "M-spike intensity relative to serum albumin (SPEP)", "setting": "5TGM1.Bmx1 MM PCs [2]; week 4, vs IgG control", "result": "significantly lower"}, {"measurement": "Reduction in tumour burden (BLI)", "setting": "5TGM1.Bmx1 MM PCs [3]; 30 mg/kg s.c. from three days prior to inoculation, 4-weeks post-tumour cell inoculation, vs IgG control", "result": "approximately 75%"}, {"measurement": "Tumour burden in the hindlimb bones (BLI)", "setting": "5TGM1.Bmx1 MM PCs [3]; antibody prior to tumour cell inoculation, vs IgG control", "result": "significant reduction"}, {"measurement": "Additional reduction in overall tumour burden compared with treatment following tumour cell inoculation", "setting": "5TGM1.Bmx1 MM PCs [3]; end of the study", "result": 25, "unit": "%"}, {"measurement": "Splenic tumour burden", "setting": "5TGM1.Bmx1 MM PCs [3]; pre-tumour cell inoculation group", "result": "downwards trend"}, {"measurement": "M-spike intensity relative to serum albumin (SPEP)", "setting": "5TGM1.Bmx1 MM PCs [3]; week 4, vs IgG control", "result": "significantly lower"}, {"measurement": "Reduction in overall tumour burden (BLI)", "setting": "[4]; day 13, 30 mg/kg s.c. twice weekly, vs isotype control Ab101.4", "result": 35, "unit": "%"}, {"measurement": "Liver metastatic tumour burden (BLI)", "setting": "[4]; vs isotype control", "result": "downward trend"}, {"measurement": "Lung metastatic tumour burden (ex vivo BLI)", "setting": "[4]; vs isotype control", "result": "statistically significant reduction"}, {"measurement": "Villus ectopic crypt formation and cell fate determination (immunohistochemical staining)", "setting": "Vil1-Grem1 mice; 30 mg/kg twice weekly for 6 weeks", "result": "reversal of villus ectopic crypt formation and deranged cell fate determination"}, {"measurement": "Pan-intestinal polyposis phenotype", "setting": "Vil1-Grem1 mice; 30 mg/kg twice weekly subcutaneous for 6 weeks", "result": "highly significant abrogation"}, {"measurement": "Animal lifespan", "setting": "Vil1-Grem1 mice; 30 mg/kg weekly subcutaneous from 6 weeks of age, prolonged dosing", "result": "significantly prolongs animal lifespan"}, {"measurement": "Adverse events", "setting": "Vil1-Grem1 mice; Grem1 initiated polyposis models, animals treated for more than 400 days", "result": "No consistent adverse events have been observed"}, {"measurement": "median survival", "setting": "Vil1-Grem1 mice; early stage treatment (42 days), 30 mg/kg weekly", "result": 540, "unit": "days"}, {"measurement": "median survival", "setting": "Vil1-Grem1 mice; established polyposis, 30 mg/kg weekly from 5 months", "result": 477, "unit": "days"}, {"measurement": "Vil1-Grem1 intestinal phenotype at timed sacrifice", "setting": "Vil1-Grem1 mice; established polyposis, over 4 weeks of treatment", "result": "reversion of the Vil1-Grem1 intestinal phenotype"}, {"measurement": "median survival", "setting": "Vil1-Grem1 mice; late-stage treatment (120 days), 30 mg/kg weekly", "result": 519, "unit": "days"}]}]}
